# Data as given in patent US20230085307A1, “PYRIDAZINONE COMPOUND AND HERBICIDE” (NISSAN CHEMICAL CORPORATION, priority 2019, published 2023).
# How the values were obtained:
# barnyard grass [1] = assay: Test Example 3: herbicidal effect by foliage application, Wagner pot (Table 18, symbol H); format: in vivo, barnyard grass (Echinochloa crus-galli); details: 320 g/ha
# How it was run: (§1)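 Plants were sown in alluvial soil held under 0.1–0.5 cm standing water and grown 14 days in a greenhouse at 25–30 °C. An emulsifiable formulation, water-diluted to the set dose, was then sprayed onto the foliage, and effects were scored three weeks later using previously defined criteria.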
# Chinese sprangletop = assay: Test Example 3: herbicidal effect by foliage application, Wagner pot (Table 18, symbol D); format: in vivo, chinese sprangletop (Leptochloa chinensis); details: 320 g/ha
# How it was run: as §1
# rice flat sedge = assay: Test Example 3: herbicidal effect by foliage application, Wagner pot (Table 18, symbol E); format: in vivo, rice flat sedge (Cyperus iria); details: 320 g/ha
# How it was run: as §1
# southern crabgrass [2] = assay: Test Example 4: herbicidal effect by soil treatment (Table 19, symbol F); format: in vivo, southern crabgrass (Digitaria ciliaris); details: for F: southern crabgrass, herbicidal effect rating: AAH 320 g/ha
# How it was run: (§2)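 Step 1: sow seeds in sterilized diluvial soil, cover ~1.5 cm. Step 2: spray diluted emulsion onto soil surface at predetermined rate. Step 3: greenhouse, 25–30° C, three weeks. Step 4: grade effect on each plant by earlier criteria.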
# green foxtail [3] = assay: Test Example 4: herbicidal effect by soil treatment (Table 19, symbol G); format: in vivo, green foxtail (Setaria viridis); details: for G: green foxtail, herbicidal effect rating: AAH 320 g/ha
# How it was run: as §2
# barnyard grass [4] = assay: Test Example 4: herbicidal effect by soil treatment (Table 19, symbol H); format: in vivo, barnyard grass (Echinochloa crus-galli); details: for H: barnyard grass, herbicidal effect rating: AAH 320 g/ha
# How it was run: as §2
# wild oat [5] = assay: Test Example 4: herbicidal effect by soil treatment (Table 19, symbol I); format: in vivo, wild oat (Avena fatua); details: for I: wild oat, herbicidal effect rating: AAH 320 g/ha
# How it was run: as §2
# blackgrass [6] = assay: Test Example 4: herbicidal effect by soil treatment (Table 19, symbol J); format: in vivo, blackgrass (Alopecurus myosuroides); details: for J: blackgrass, herbicidal effect rating: AAH 320 g/ha
# How it was run: as §2
# Italian ryegrass [7] = assay: Test Example 4: herbicidal effect by soil treatment (Table 19, symbol K); format: in vivo, Italian ryegrass (Lolium multiflorum); details: for K: Italian ryegrass, herbicidal effect rating: AAH 320 g/ha
# How it was run: as §2
# windgrass [8] = assay: Test Example 4: herbicidal effect by soil treatment (Table 19, symbol L); format: in vivo, windgrass (Apera spica-venti); details: for L: windgrass, herbicidal effect rating: AAH 320 g/ha
# How it was run: as §2
# velvetleaf [9] = assay: Test Example 4: herbicidal effect by soil treatment (Table 19, symbol M); format: in vivo, velvetleaf (Abutilon theophrasti); details: for M: velvetleaf, herbicidal effect rating: AAH 320 g/ha
# How it was run: as §2
# redroot pigweed [10] = assay: Test Example 4: herbicidal effect by soil treatment (Table 19, symbol N); format: in vivo, redroot pigweed (Amaranthus retroflexus); details: for N: redroot pigweed, herbicidal effect rating: AAH 320 g/ha
# How it was run: as §2
# lambsquarters [11] = assay: Test Example 4: herbicidal effect by soil treatment (Table 19, symbol O); format: in vivo, lambsquarters (Chenopodium album); details: for O: lambsquarters, herbicidal effect rating: AAH 320 g/ha
# How it was run: as §2
# chickweed [12] = assay: Test Example 4: herbicidal effect by soil treatment (Table 19, symbol P); format: in vivo, common chickweed (Stellaria media); details: for P: chickweed, herbicidal effect rating: AAH 320 g/ha
# How it was run: as §2
# persian speedwell [13] = assay: Test Example 4: herbicidal effect by soil treatment (Table 19, symbol R); format: in vivo, Persian speedwell (Veronica persica); details: for R: persian speedwell, herbicidal effect rating: AAH 320 g/ha
# How it was run: as §2
# southern crabgrass [14] = assay: Test Example 5: herbicidal effect by foliage application, plastic box (Table 20, symbol F); format: in vivo, southern crabgrass (Digitaria ciliaris); details: foliage application, AAH 320 g/ha, three weeks after application
# How it was run: (§3)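 Foliar spray test: emulsion formulation diluted in water to a set application rate, sprayed onto 14-day-old plants raised in diluvial soil at 25° C to 30° C under glass. Both herbicidal effect and crop effect rated visually three weeks later.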
# green foxtail [15] = assay: Test Example 5: herbicidal effect by foliage application, plastic box (Table 20, symbol G); format: in vivo, green foxtail (Setaria viridis); details: foliage application, AAH 320 g/ha, three weeks after application
# How it was run: as §3
# barnyard grass [16] = assay: Test Example 5: herbicidal effect by foliage application, plastic box (Table 20, symbol H); format: in vivo, barnyard grass (Echinochloa crus-galli); details: foliage application, AAH 320 g/ha, three weeks after application
# How it was run: as §3
# wild oat [17] = assay: Test Example 5: herbicidal effect by foliage application, plastic box (Table 20, symbol I); format: in vivo, wild oat (Avena fatua); details: foliage application, AAH 320 g/ha, three weeks after application
# How it was run: as §3
# blackgrass [18] = assay: Test Example 5: herbicidal effect by foliage application, plastic box (Table 20, symbol J); format: in vivo, blackgrass (Alopecurus myosuroides); details: foliage application, AAH 320 g/ha, three weeks after application
# How it was run: as §3
# Italian ryegrass [19] = assay: Test Example 5: herbicidal effect by foliage application, plastic box (Table 20, symbol K); format: in vivo, Italian ryegrass (Lolium multiflorum); details: foliage application, AAH 320 g/ha, three weeks after application
# How it was run: as §3
# windgrass [20] = assay: Test Example 5: herbicidal effect by foliage application, plastic box (Table 20, symbol L); format: in vivo, windgrass (Apera spica-venti); details: foliage application, AAH 320 g/ha, three weeks after application
# How it was run: as §3
# velvetleaf [21] = assay: Test Example 5: herbicidal effect by foliage application, plastic box (Table 20, symbol M); format: in vivo, velvetleaf (Abutilon theophrasti); details: foliage application, AAH 320 g/ha, three weeks after application
# How it was run: as §3
# redroot pigweed [22] = assay: Test Example 5: herbicidal effect by foliage application, plastic box (Table 20, symbol N); format: in vivo, redroot pigweed (Amaranthus retroflexus); details: foliage application, AAH 320 g/ha, three weeks after application
# How it was run: as §3
# lambsquarters [23] = assay: Test Example 5: herbicidal effect by foliage application, plastic box (Table 20, symbol O); format: in vivo, lambsquarters (Chenopodium album); details: foliage application, AAH 320 g/ha, three weeks after application
# How it was run: as §3
# chickweed [24] = assay: Test Example 5: herbicidal effect by foliage application, plastic box (Table 20, symbol P); format: in vivo, common chickweed (Stellaria media); details: foliage application, AAH 320 g/ha, three weeks after application
# How it was run: as §3
# persian speedwell [25] = assay: Test Example 5: herbicidal effect by foliage application, plastic box (Table 20, symbol R); format: in vivo, Persian speedwell (Veronica persica); details: foliage application, AAH 320 g/ha, three weeks after application
# How it was run: as §3
# [26] = amount of applied herbicide 320 g/ha
Structure (SMILES),"herbicidal effect on H (barnyard grass), rating 0-5 (barnyard grass [1])","herbicidal effect on D (Chinese sprangletop), rating 0-5 (Chinese sprangletop)","herbicidal effect on E (rice flat sedge), rating 0-5 (rice flat sedge)","F: southern crabgrass, herbicidal effect (southern crabgrass [14])","G: green foxtail, herbicidal effect (green foxtail [15])","H: barnyard grass, herbicidal effect (barnyard grass [16])","I: wild oat, herbicidal effect (wild oat [17])","J: blackgrass, herbicidal effect (blackgrass [18])","K: Italian ryegrass, herbicidal effect (Italian ryegrass [19])","L: windgrass, herbicidal effect (windgrass [20])","M: velvetleaf, herbicidal effect (velvetleaf [21])","N: redroot pigweed, herbicidal effect (redroot pigweed [22])","O: lambsquarters, herbicidal effect (lambsquarters [23])","P: chickweed, herbicidal effect (chickweed [24])","R: persian speedwell, herbicidal effect (persian speedwell [25])","F: southern crabgrass, herbicidal effect rating (southern crabgrass [2])","G: green foxtail, herbicidal effect rating (green foxtail [3])","H: barnyard grass, herbicidal effect rating (barnyard grass [4])","I: wild oat, herbicidal effect rating (wild oat [5])","J: blackgrass, herbicidal effect rating (blackgrass [6])",also measured
C#CCOc1ccccc1-c1sc2ccccc2c1-c1c(O)c(C)nn(C)c1=O [1-112],4 (Herbicidal rate of 70% or more and less than 90%),3 (Herbicidal rate of 40% or more and less than 70%),3 (Herbicidal rate of 40% or more and less than 70%),5 (Herbicidal rate of 90% or more (almost completely withered)),5 (Herbicidal rate of 90% or more (almost completely withered)),4 (Herbicidal rate of 70% or more and less than 90%),5 (Herbicidal rate of 90% or more (almost completely withered)),5 (Herbicidal rate of 90% or more (almost completely withered)),3 (Herbicidal rate of 40% or more and less than 70%),5 (Herbicidal rate of 90% or more (almost completely withered)),4 (Herbicidal rate of 70% or more and less than 90%),5 (Herbicidal rate of 90% or more (almost completely withered)),1 (Herbicidal rate of 5% or more and less than 20%),5 (Herbicidal rate of 90% or more (almost completely withered)),5 (Herbicidal rate of 90% or more (almost completely withered)),–,–,–,–,–,"herbicidal effect rating, F: southern crabgrass (southern crabgrass [2]; [26]): 0 (Herbicidal rate of 5% or less (almost no effect)); herbicidal effect rating, G: green foxtail (green foxtail [3]; [26]): 1 (Herbicidal rate of 5% or more and less than 20%); herbicidal effect rating, H: barnyard grass (barnyard grass [4]; [26]): 0 (Herbicidal rate of 5% or less (almost no effect)); herbicidal effect rating, I: wild oat (wild oat [5]; [26]): 0 (Herbicidal rate of 5% or less (almost no effect)); herbicidal effect rating, J: blackgrass (blackgrass [6]; [26]): 4 (Herbicidal rate of 70% or more and less than 90%); herbicidal effect rating, K: Italian ryegrass (Italian ryegrass [7]; [26]): 0 (Herbicidal rate of 5% or less (almost no effect)); herbicidal effect rating, L: windgrass (windgrass [8]; [26]): 5 (Herbicidal rate of 90% or more (almost completely withered)); herbicidal effect rating, M: velvetleaf (velvetleaf [9]; [26]): 3 (Herbicidal rate of 40% or more and less than 70%); herbicidal effect rating, N: redroot pigweed (redroot pigweed [10]; [26]): 1 (Herbicidal rate of 5% or more and less than 20%); herbicidal effect rating, O: lambsquarters (lambsquarters [11]; [26]): 0 (Herbicidal rate of 5% or less (almost no effect)); herbicidal effect rating, P: chickweed (chickweed [12]; [26]): 5 (Herbicidal rate of 90% or more (almost completely withered)); herbicidal effect rating, R: persian speedwell (persian speedwell [13]; [26]): 5 (Herbicidal rate of 90% or more (almost completely withered))"
C=Cc1ccc(-c2sc3ccccc3c2-c2c(O)c(C)nn(C)c2=O)cc1 [1-127],0 (Herbicidal rate of 5% or less (almost no effect)),3 (Herbicidal rate of 40% or more and less than 70%),5 (Herbicidal rate of 90% or more (almost completely withered)),2 (Herbicidal rate of 20% or more and less than 40%),4 (Herbicidal rate of 70% or more and less than 90%),4 (Herbicidal rate of 70% or more and less than 90%),0 (Herbicidal rate of 5% or less (almost no effect)),1 (Herbicidal rate of 5% or more and less than 20%),5 (Herbicidal rate of 90% or more (almost completely withered)),5 (Herbicidal rate of 90% or more (almost completely withered)),5 (Herbicidal rate of 90% or more (almost completely withered)),5 (Herbicidal rate of 90% or more (almost completely withered)),5 (Herbicidal rate of 90% or more (almost completely withered)),5 (Herbicidal rate of 90% or more (almost completely withered)),5 (Herbicidal rate of 90% or more (almost completely withered)),0 (Herbicidal rate of 5% or less (almost no effect)),0 (Herbicidal rate of 5% or less (almost no effect)),0 (Herbicidal rate of 5% or less (almost no effect)),0 (Herbicidal rate of 5% or less (almost no effect)),0 (Herbicidal rate of 5% or less (almost no effect)),"K: Italian ryegrass, herbicidal effect rating (Italian ryegrass [7]): 5 (Herbicidal rate of 90% or more (almost completely withered)); L: windgrass, herbicidal effect rating (windgrass [8]): 0 (Herbicidal rate of 5% or less (almost no effect)); M: velvetleaf, herbicidal effect rating (velvetleaf [9]): 2 (Herbicidal rate of 20% or more and less than 40%); N: redroot pigweed, herbicidal effect rating (redroot pigweed [10]): 5 (Herbicidal rate of 90% or more (almost completely withered)); O: lambsquarters, herbicidal effect rating (lambsquarters [11]): 4 (Herbicidal rate of 70% or more and less than 90%); P: chickweed, herbicidal effect rating (chickweed [12]): 0 (Herbicidal rate of 5% or less (almost no effect)); R: persian speedwell, herbicidal effect rating (persian speedwell [13]): 4 (Herbicidal rate of 70% or more and less than 90%)"
Cc1nn(C)c(=O)c(-c2c(-c3ccc(C(F)(F)F)cc3)sc3ccccc23)c1O [1-129],3 (Herbicidal rate of 40% or more and less than 70%),3 (Herbicidal rate of 40% or more and less than 70%),5 (Herbicidal rate of 90% or more (almost completely withered)),0 (Herbicidal rate of 5% or less (almost no effect)),2 (Herbicidal rate of 20% or more and less than 40%),3 (Herbicidal rate of 40% or more and less than 70%),0 (Herbicidal rate of 5% or less (almost no effect)),0 (Herbicidal rate of 5% or less (almost no effect)),5 (Herbicidal rate of 90% or more (almost completely withered)),0 (Herbicidal rate of 5% or less (almost no effect)),5 (Herbicidal rate of 90% or more (almost completely withered)),5 (Herbicidal rate of 90% or more (almost completely withered)),4 (Herbicidal rate of 70% or more and less than 90%),5 (Herbicidal rate of 90% or more (almost completely withered)),5 (Herbicidal rate of 90% or more (almost completely withered)),0 (Herbicidal rate of 5% or less (almost no effect)),0 (Herbicidal rate of 5% or less (almost no effect)),0 (Herbicidal rate of 5% or less (almost no effect)),0 (Herbicidal rate of 5% or less (almost no effect)),0 (Herbicidal rate of 5% or less (almost no effect)),"K: Italian ryegrass, herbicidal effect rating (Italian ryegrass [7]): 5 (Herbicidal rate of 90% or more (almost completely withered)); L: windgrass, herbicidal effect rating (windgrass [8]): 0 (Herbicidal rate of 5% or less (almost no effect)); M: velvetleaf, herbicidal effect rating (velvetleaf [9]): 2 (Herbicidal rate of 20% or more and less than 40%); N: redroot pigweed, herbicidal effect rating (redroot pigweed [10]): 5 (Herbicidal rate of 90% or more (almost completely withered)); O: lambsquarters, herbicidal effect rating (lambsquarters [11]): 5 (Herbicidal rate of 90% or more (almost completely withered)); P: chickweed, herbicidal effect rating (chickweed [12]): 1 (Herbicidal rate of 5% or more and less than 20%); R: persian speedwell, herbicidal effect rating (persian speedwell [13]): 4 (Herbicidal rate of 70% or more and less than 90%)"
